For one data set, the system named is dog. To be noted: Chronic toxicity, beagle, Oral, Feed, dose end: 104 week.
For data set [1], the system named is rabbit. Conditions: Prenatal developmental toxicity study, new zealand white, Oral, Gavage/Intubation, dose end: 18 GD.
The test system of data set [2] is rat. Conditions: Prenatal developmental toxicity study, sprague dawley, Injection, Intraperitoneal, dose end: 15 GD.
Data set [3] deals with rat. Conditions: Sub-acute repeat dose toxicity, sprague dawley, Oral, Gavage/Intubation, dose end: 28 day.
In data set [4] the test system is rat. Conditions: Prenatal developmental toxicity study, sprague dawley, Oral, Gavage/Intubation, dose end: 15 GD.
The test system of data set [5] is rat. To be noted: Prenatal developmental toxicity study, sprague dawley, Oral, Gavage/Intubation, dose end: 15 GD. The source holds these as a separate data set.
Data set [6] deals with rabbit. Conditions: Prenatal developmental toxicity study, new zealand white, Oral, Gavage/Intubation, dose end: 18 GD. This is another data set of the same source.
Data set [7] deals with rat. To be noted: Multigenerational reproductive toxicity study, sprague dawley, Oral, Feed, dose end: 2 generation.
[8] abbreviates: group: cholinesterase, cholinesterase / cholinesterase / cholinesterase / plasma cholinesterase (che) + cholinesterase / cholinesterase / cholinesterase / brain ….
The mark [9] stands for this setting: group: systemic, systemic / clinical chemistry / alkaline phosphatase (alp/alk) / alkaline phosphatase (alp/alk).
Where [10] appears, read: group: cholinesterase, cholinesterase / cholinesterase / cholinesterase / brain (regional) cholinesterase (che) + cholinesterase / cholinesterase / cholinesterase….
[11] abbreviates: group: developmental, developmental / developmental malformation / bone / [other].
Where [12] appears, read: group: maternal, systemic / in life observation / body weight / body weight + systemic / in life observation / body weight / body weight gain + systemic / in….
[13] abbreviates: group: developmental, systemic / in life observation / body weight / fetal weight.
Where [14] appears, read: group: maternal, systemic / in life observation / clinical signs / [other] + systemic / in life observation / clinical signs / altered breathing rate + ….
[15] abbreviates: group: maternal, reproductive / reproductive performance / estrous cycle / abnormal.
Where [16] appears, read: group: systemic, systemic / clinical chemistry / alanine aminotransferase (alt/sgpt) / alanine aminotransferase (alt/sgpt) + systemic / clinical chemistry / ….
The mark [17] stands for this setting: group: systemic, systemic / organ weight / uterus / relative to body weight + systemic / organ weight / seminal vesicle / relative to body weight.
[18] abbreviates: group: developmental, developmental / developmental malformation / bone / enlarged fontanel + developmental / developmental malformation / bone / incomplete ….
Where [19] appears, read: group: maternal, systemic / in life observation / clinical signs / motor activity + systemic / in life observation / clinical signs / respiration (rales) + ….
The mark [20] stands for this setting: group: developmental, developmental / developmental malformation / bone / full supernumerary + developmental / developmental malformation / diaphragm / ….
Setting [21] is: group: maternal, systemic / in life observation / body weight / body weight gain + systemic / in life observation / clinical signs / discharge on cageboard….
The mark [22] stands for this setting: group: developmental, developmental / developmental malformation / bone / full supernumerary + developmental / developmental malformation / bone / incomplete ….
Where [23] appears, read: group: maternal, reproductive / reproductive performance / postimplantation loss / postimplantation loss + systemic / in life observation / clinical signs / ….
Where [24] appears, read: group: offspring, developmental / offspring survival late / lactation index / lactation index + developmental / offspring survival late / viability index / ….
Setting [25] is: group: parental, systemic / in life observation / body weight / body weight + systemic / in life observation / body weight / body weight gain.
Where [26] appears, read: group: parental, systemic / in life observation / body weight / body weight + systemic / in life observation / body weight / body weight gain + systemic / in….

For `CCOP(=S)(NC(C)C)Oc1ccccc1C(=O)OC(C)C` (stereo unspecified) [Isofenphos], the lowest-observed-adverse-effect level (LOAEL) is 0.45 mg/kg/day in the data set with dog (group: cholinesterase, cholinesterase / cholinesterase / cholinesterase / plasma cholinesterase (che)); more than 3.43 mg/kg/day in the data set with dog (setting [9]); 1.25 mg/kg/day in the data set with rabbit [1] (setting [10]); more than 7.5 mg/kg/day in the data set on rabbit [1] (setting [11]); 7.5 mg/kg/day in the data set on rabbit [1] (setting [12]). Besides, the NEL in the data set with dog (setting [8]) was determined as 0.09 mg/kg/day; in the data set with dog (setting [9]), 0.53 mg/kg/day; in the data set on rabbit [1] (setting [10]), 0.25 mg/kg/day; in the data set with rabbit [1] (setting [11]), 1.25 mg/kg/day; in the data set on rabbit [1] (setting [12]), 1.25 mg/kg/day. Besides, the NOAEL was 0.09 mg/kg/day in the data set with dog (setting [8]); not below 3.43 mg/kg/day in the data set with dog (setting [9]); 0.25 mg/kg/day with rabbit [1] (setting [10]); not below 7.5 mg/kg/day in the data set on rabbit [1] (setting [11]); 1.25 mg/kg/day in the data set on rabbit [1] (setting [12]). For the same compound, the LEL with dog (group: cholinesterase, cholinesterase / cholinesterase / cholinesterase / plasma cholinesterase (che) + cholinesterase / cholinesterase / cholinesterase / …) amounted to 0.45 mg/kg/day; in the data set with dog (setting [9]), 3.43 mg/kg/day; in the data set on rabbit [1] (setting [10]), 1.25 mg/kg/day; in the data set with rabbit [1] (setting [11]) it was 7.5 mg/kg/day; with rabbit [1] (setting [12]) it was 7.5 mg/kg/day.

On to `CC(C)NCC(O)c1ccc(O)c(O)c1.Cl` (stereo unspecified) [Isoproterenol hydrochloride], for which, in the data set with rat [2] (setting [13]), the LEL turned out to be 20 mg/kg/day, the LOAEL was more than 80 mg/kg/day, the NEL was less than 20 mg/kg/day and the NOAEL is not below 80 mg/kg/day. Also, in the data set on rat [2] (setting [14]), the LEL is 20 mg/kg/day, the LOAEL was more than 80 mg/kg/day, the NEL was less than 20 mg/kg/day and the no observed adverse effect level (NOAEL) was not below 80 mg/kg/day.

For the compound `CC(=O)N1CCN(c2ccc(OC[C@@H]3CO[C@@](Cn4ccnc4)(c4ccc(Cl)cc4Cl)O3)cc2)CC1` [Ketoconazole], in the data set with rat [3] (setting [15]), the LEL came to 100 mg/kg/day, the LOAEL was more than 100 mg/kg/day, the NEL was 25 mg/kg/day and the NOAEL was not below 100 mg/kg/day. Moreover, in the data set with rat [3] (setting [16]), the lowest-observed-adverse-effect level (LOAEL) is more than 100 mg/kg/day and the no-observed-adverse-effect level (NOAEL) was not below 100 mg/kg/day. In addition, in the data set on rat [3] (setting [17]), the LEL stood at 6.25 mg/kg/day and the NEL is less than 6.25 mg/kg/day.

As for `CC1COC(=O)O1` (stereo unspecified) [Propylene carbonate], in the data set with rat [4] (setting [18]), the LEL is 5000 mg/kg/day, the LOAEL turned out to be 5000 mg/kg/day, the NEL is 3000 mg/kg/day and the NOAEL stood at 3000 mg/kg/day. In addition, in the data set with rat [4] (setting [19]), the LEL came out at 3000 mg/kg/day, the lowest-observed-adverse-effect level (LOAEL) was 3000 mg/kg/day, the NEL is 1000 mg/kg/day and the NOAEL was found to be 1000 mg/kg/day.

Consider `CCCCOCCOC(=O)COc1nc(Cl)c(Cl)cc1Cl` [Triclopyr-butotyl], for which the LEL with rat [5] (setting [20]) was determined as 300 mg/kg/day; in the data set on rat [5] (group: maternal, systemic / in life observation / body weight / body weight gain), 30 mg/kg/day; with rabbit [6] (setting [22]), 100 mg/kg/day; in the data set with rabbit [6] (setting [23]), 100 mg/kg/day. In addition, the lowest observed adverse effect level (LOAEL) with rat [5] (setting [20]) was more than 300 mg/kg/day; with rat [5] (setting [21]), more than 300 mg/kg/day; in the data set on rabbit [6] (setting [22]) it was 100 mg/kg/day; with rabbit [6] (setting [23]), 100 mg/kg/day. Further, the NEL with rat [5] (setting [20]) was found to be 100 mg/kg/day; in the data set with rat [5] (setting [21]), 5 mg/kg/day; with rabbit [6] (setting [22]), 30 mg/kg/day; with rabbit [6] (setting [23]), 30 mg/kg/day. Moreover, the NOAEL in the data set on rat [5] (setting [20]) is not below 300 mg/kg/day; with rat [5] (setting [21]), not below 300 mg/kg/day; in the data set with rabbit [6] (setting [22]), 30 mg/kg/day; in the data set with rabbit [6] (setting [23]), 30 mg/kg/day.

As to `CCOC(=O)C1CC(=O)C(=C(O)C2CC2)C(=O)C1` (stereo unspecified) [Trinexapac-ethyl], in the data set with rat [7] (setting [24]), the LEL was 1250 mg/kg/day and the NEL turned out to be 592 mg/kg/day. Also, in the data set with rat [7] (setting [25]), the LEL worked out at 592 mg/kg/day and the LOAEL came to 592 mg/kg/day. Further, in the data set with rat [7] (setting [26]), the NEL came to 59.1 mg/kg/day and the no observed adverse effect level (NOAEL) amounted to 59.1 mg/kg/day.

(Values after EPA's ToxRefDB 2.)
